Assays:
[1] = biological target: SHP-2 full length protein (Homo sapiens (Human), UniProt Q06124); assay: SHP-2 biochemical DiFMUP pseudosubstrate-fluorogenic assay; conditions: 0.2 nM SHP-2, 1 μM IRS-1 activator peptide, 50 μM DiFMUP; read-out: SHP2 IC50
Experimental: SHP-2 Biochemical Assay Materials Recombinant SHP-2 full length protein was generated in house. SHP-2 protein tyrosine phosphatase (PTP) domain protein (Catalog number SPR0217-20 ug), NaCl (Catalog number S6546-1L), and KCl (Catalog number 60142-500 mL) were purchased from Sigma-Aldrich (St. Louis, Mo.). IRS-1_[…](dPEG8)[…] peptide […]) was custom made by AnaSpec (Fremont, Calif.). DiFMUP substrate (Catalog number D6567), EDTA (Catalog number E177-500 mL), DTT (Catalog number P2325), and 384-well black polystyrene non-binding surface (Catalog number 3820) were purchased from Fisher Scientific (Hanover Park, Ill.). HEPES (Catalog number 15630-080) was purchased from Life Technologies (Pleasanton, Calif.), and Tween-20 (Catalog number 95059-250) was purchased from VWR (Radnor, Pa.). Method Inhibition of SHP-2 activity by small molecule inhibitors was monitored by a biochemical DiFMUP pseudosubstrate-fluorogenic assay. […] The reaction mix was added to the 384-well non-binding plate which had been pre-spotted with 1:3 serial diluted compounds from 10,000-0.005 nM, and incubated at room temperature for 90 min. DiFMUP substrate at final concentration of 50 μM was then added to the wells and incubated for additional 30 min at room temperature. The final reaction volume was 20 μl/well. […] The inhibitor dose response curves were generated using normalized IC50 regression curve fitting by in house dose response analysis tools. The wells with DMSO vehicle were used as controls (100% signal). The percent (%) control of SHP-2 compound was calculated as: (Compound well fluorescence counts/DMSO fluorescence counts)×100%.

[2] = test system: NCI-H358 cells; assay: NCI-H358 3D tumor spheroid growth inhibition; format: cell-based; conditions: Homo sapiens, NCI-H358, 168 h, 3D spheroids, 7 days, 3D CellTiter Glo; cellular IC50 designated EC50; read-out: H358 EC50
Text: SHP-2 Cell Based Assay: […] Materials NCI-H358 cell line was purchased from [NT] number ATCC CRL-5807) (Manassas, Va.). RPMI-1640 (Catalog number 10-040-CM) was from Corning Cellgro (Manassas, Va.), Fetal Bovine Serum (FBS) (Catalog number SH30071.03) was from HyClone (Logan, Utanh), and 100× Penicillin/Streptomycin/L-Glutamine stock (Catalog no. 30-009-CI) and 384-well ULA plates (Catalog number 3830) were from Corning (Fremont, Calif.). Method […] At the day of assay, the cells were trypsinized and seeded at 1000 cells/70 μl/well in 384-well ULA plates and incubated at 37° C. incubator with 5% CO2 to allow spheroids to form. […] The plates were incubated for additional 7 days. Then 35 μl of medium from each well was removed, and replaced with 35 μl of 3D CellTiter Glo reagent from Promega. The wells were mixed by pipetting up and down with Biomek FX for 15 times to induce cell lysis and the plates were incubated at room temperature for additional 10 min to stabilize luminescent signal. The luminescence was then read by Envision. The inhibitor dose response curves were generated using normalized cellular IC50 (designated as EC50 in all FIGURES to distinguish from biochemical IC50s) by in house dose response analyses tools. The wells with DMSO vehicle were used as negative controls (0% inhibition). The % inhibition of SHP-2 compounds was calculated as: 100-[(Compound well luminescence counts/DMSO luminescence counts)×100%].

Row | IC50 [1] | EC50 [2] | SMILES
1 | 5.6 nM | 170 nM | Nc1nccc(Sc2cnc(N3CCC4(CCC[C@H]4N)CC3)n3ccnc23)c1Cl [Example 45, (R)-8-(8-((2-amino-3-chloropyridin-4-yl)thio)imidazo[1,2-c]pyrimidin-5-yl)-8-azaspiro[4.5]decan-1-amine]
2 | 3.1 nM | 31 nM | N[C@@H]1CCCC12CCN(c1ncc(Sc3ccnc(Cl)c3Cl)c3nccn13)CC2 [Example 46, (R)-8-(8-((2,3-dichloropyridin-4-yl)thio)imidazo[1,2-c]pyrimidin-5-yl)-8-azaspiro[4.5]decan-1-amine]
3 | 7.6 nM | 150 nM | Cc1nccc(Sc2cnc(N3CCC4(CCC[C@H]4N)CC3)n3ccnc23)c1Cl [Example 47, (R)-8-(8-((3-chloro-2-methylpyridin-4-yl)thio)imidazo[1,2-c]pyrimidin-5-yl)-8-azaspiro[4.5]decan-1-amine]
4 | 120 nM | 1700 nM | CC1(N)CCN(c2ncc(Sc3cccc(Cl)c3Cl)c3nccn23)CC1 [Example 48, 1-(8-((2,3-dichlorophenyl)thio)imidazo[1,2-c]pyrimidin-5-yl)-4-methylpiperidin-4-amine]
5 | 280 nM | > 12500 nM | N[C@@H]1CCCC12CCN(c1ncc(-c3cccc(Cl)c3Cl)c3nccn13)CC2 [Example 52, (R)-8-(8-(2,3-dichlorophenyl)imidazo[1,2-c]pyrimidin-5-yl)-8-azaspiro[4.5]decan-1-amine]
6 | 75 nM | 990 nM | NC1CCCN(c2ncc(Sc3cccc(Cl)c3Cl)c3nccn23)CC1 (stereo not shown) [Example 56, 1-(8-((2,3-dichlorophenyl)thio)imidazo[1,2-c]pyrimidin-5-yl)azepan-4-amine]
7 | 500 nM | > 12500 nM | Clc1cccc(Sc2cnc(N3CCC4(CCCCN4)CC3)n3ccnc23)c1Cl [Example 57, 9-(8-((2,3-dichlorophenyl)thio)imidazo[1,2-c]pyrimidin-5-yl)-1,9-diazaspiro[5.5]undecane]
8 | 340 nM | 4400 nM | NC1CC2(CCN(c3ncc(Sc4cccc(Cl)c4Cl)c4nccn34)C2)C1 (stereo not shown) [Example 58, 6-(8-((2,3-dichlorophenyl)thio)imidazo[1,2-c]pyrimidin-5-yl)-6-azaspiro[3.4]octan-2-amine]
9 | 1300 nM | > 12500 nM | CC1(N)CCN(c2ncc(Sc3cccc(Cl)c3Cl)c3ncnn23)CC1 [Example 62, 1-(8-((2,3-dichlorophenyl)thio)-[1,2,4]triazolo[1,5-c]pyrimidin-5-yl)-4-methylpiperidin-4-amine]
10 | 140 nM | 2900 nM | Cc1nc(N2CCC3(CCC[C@H]3N)CC2)n2cnnc2c1-c1cnc(N)c(Cl)c1Cl [Example 66, (R)-8-(8-(6-amino-4,5-dichloropyridin-3-yl)-7-methyl-[1,2,4]triazolo[4,3-c]pyrimidin-5-yl)-8-azaspiro[4.5]decan-1-amine]
11 | 6.4 nM | 100 nM | Cc1nc(N2CCC3(CC2)CO[C@@H](C)[C@H]3N)n2cnnc2c1-c1cccc(Cl)c1Cl [Example 67, (3S,4S)-8-(8-(2,3-dichlorophenyl)-7-methyl-[1,2,4]triazolo[4,3-c]pyrimidin-5-yl)-3-methyl-2-oxa-8-azaspiro[4.5]decan-4-amine]
12 | 9.4 nM | 440 nM | Cc1nc(N2CCC3(CC2)C[C@@H](O)C[C@H]3N)n2cnnc2c1-c1cccc(Cl)c1Cl [Example 68, (2R,4R)-4-amino-8-(8-(2,3-dichlorophenyl)-7-methyl-[1,2,4]triazolo[4,3-c]pyrimidin-5-yl)-8-azaspiro[4.5]decan-2-ol]
13 | 3.1 nM | 86 nM | N[C@@H]1CCCC12CCN(c1nc(Cl)c(-c3cccc(Cl)c3Cl)c3nccn13)CC2 [Example 69, (R)-8-(7-chloro-8-(2,3-dichlorophenyl)imidazo[1,2-c]pyrimidin-5-yl)-8-azaspiro[4.5]decan-1-amine]
14 | 670 nM | 3900 nM | N[C@@H]1CCCC12CCN(c1ncc(Sc3cncc4ccccc34)c3nccn13)CC2 [Example 70, (R)-8-(8-(isoquinolin-4-ylthio)imidazo[1,2-c]pyrimidin-5-yl)-8-azaspiro[4.5]decan-1-amine]
15 | 30 nM | 550 nM | Cc1nc(N2CCC3(CCC[C@H]3N)CC2)n2ccnc2c1-c1ccc2cn[nH]c2c1 [Example 73, (R)-8-(8-(1H-indazol-6-yl)-7-methylimidazo[1,2-c]pyrimidin-5-yl)-8-azaspiro[4.5]decan-1-amine]
16 | 860 nM | > 12500 nM | Cc1nc(N2CCC3(CCC[C@H]3N)CC2)n2ccnc2c1-c1ccc2c(c1)OC(F)(F)O2 [Example 74, (R)-8-(8-(2,2-difluorobenzo[d][1,3]dioxol-5-yl)-7-methylimidazo[1,2-c]pyrimidin-5-yl)-8-azaspiro[4.5]decan-1-amine]
17 | 180 nM | 3100 nM | N[C@@H]1CCCC12CCN(c1ncc(Sc3ccc4cn[nH]c4c3)c3nccn13)CC2 [Example 77, (R)-8-(8-((1H-indazol-6-yl)thio)imidazo[1,2-c]pyrimidin-5-yl)-8-azaspiro[4.5]decan-1-amine]
18 | 5.9 nM | 95 nM | N[C@@H]1CCCC12CCN(c1ncc(Sc3ccnc4ccccc34)c3nccn13)CC2 [Example 78, (R)-8-(8-(quinolin-4-ylthio)imidazo[1,2-c]pyrimidin-5-yl)-8-azaspiro[4.5]decan-1-amine]
19 | 5300 nM | > 12500 nM | N[C@@H]1CCCC12CCN(c1ncc(SC3CCCCC3)c3nccn13)CC2 [Example 79, (R)-8-(8-(cyclohexylthio)imidazo[1,2-c]pyrimidin-5-yl)-8-azaspiro[4.5]decan-1-amine]

Row | SMILES | IC50 [1] | EC50 [2]
20 | C[C@@H]1OCC2(CCN(c3ncc(Sc4cccc(Cl)c4Cl)c4nccn34)CC2)[C@@H]1N [Example 55, (3S,4S)-8-(8-((2,3-dichlorophenyl)thio)imidazo[1,2-c]pyrimidin-5-yl)-3-methyl-2-oxa-8-azaspiro[4.5]decan-4-amine] | 1.5 nM | 49 nM
21 | CC1(N)CCN(c2ncc(Sc3cccc(Cl)c3Cl)c3nncn23)CC1 [Example 61, 1-(8-((2,3-dichlorophenyl)thio)-[1,2,4]triazolo[4,3-c]pyrimidin-5-yl)-4-methylpiperidin-4-amine] | 130 nM | 2300 nM
22 | Nc1nccc(Sc2cnc(N3CCC4(CCC[C@H]4N)CC3)n3cnnc23)c1Cl [Example 63, (R)-8-(8-((2-amino-3-chloropyridin-4-yl)thio)-[1,2,4]triazolo[4,3-c]pyrimidin-5-yl)-8-azaspiro[4.5]decan-1-amine] | 13 nM | 580 nM
23 | C[C@@H]1OCC2(CCN(c3ncc(Oc4cccc(Cl)c4Cl)c4nccn34)CC2)[C@@H]1N [Example 71, (3S,4S)-8-(8-(2,3-dichlorophenoxy)imidazo[1,2-c]pyrimidin-5-yl)-3-methyl-2-oxa-8-azaspiro[4.5]decan-4-amine] | 120 nM | 1400 nM
24 | N[C@@H]1CCCC12CCN(c1ncc(Nc3cccc(Cl)c3Cl)c3nccn13)CC2 [Example 72, (R)-8-(8-((2,3-dichlorophenyl)amino)imidazo[1,2-c]pyrimidin-5-yl)-8-azaspiro[4.5]decan-1-amine] | 2000 nM | > 12500 nM
25 | Cc1nc(N2CCC3(CC2)C[C@@H](O)C[C@H]3N)n2ccnc2c1Sc1cccc(Cl)c1Cl [Example 75, (2R,4R)-4-amino-8-(8-((2,3-dichlorophenyl)thio)-7-methylimidazo[1,2-c]pyrimidin-5-yl)-8-azaspiro[4.5]decan-2-ol] | 3.9 nM | 48 nM
26 | Cc1nc(N2CCC3(CC2)CO[C@@H](C)[C@H]3N)n2ccnc2c1Sc1cccc(Cl)c1Cl [Example 76, (3S,4S)-8-(8-((2,3-dichlorophenyl)thio)-7-methylimidazo[1,2-c]pyrimidin-5-yl)-3-methyl-2-oxa-8-azaspiro[4.5]decan-4-amine] | 3.3 nM | 59 nM
